ChEMBL document CHEMBL3861980, “Discovery of Benzothiazole Scaffold-Based DNA Gyrase B Inhibitors” (J Med Chem, 2016)

Legend:
DNA gyrase subunit B [1] = biological target: DNA gyrase subunit B (Staphylococcus aureus, UniProt P0A0K8)
Description: Inhibition of Staphylococcus aureus DNA gyrase B ATP binding site assessed as reduction in supercoiling of relaxed pNO1 DNA after 30 mins in presence of biotinylated oligonucleotide by sybrGOLD staining based fluorescence assay

DNA gyrase subunit B [2] = biological target: DNA gyrase subunit B (Escherichia coli, UniProt P0AES6)
Description: Inhibition of Escherichia coli DNA gyrase B ATP binding site assessed as reduction in supercoiling of relaxed pNO1 DNA after 30 mins in presence of biotinylated oligonucleotide by sybrGOLD staining based fluorescence assay

Enterococcus faecalis = assay: microbe, parasite or virus in culture; conditions: ATCC 29212, 24 h, read-out: GI
Description: Growth inhibition of Enterococcus faecalis ATCC 29212 at 50 uM after 24 hrs by broth microdilution method

Pseudomonas aeruginosa = assay: Growth inhibition of Pseudomonas aeruginosa ATCC 27853 at 50 uM after 24 hrs by broth microdilution method; format: functional; conditions: ATCC 27853, 24 h, read-out: GI
Escherichia coli [3] = assay: Growth inhibition of Escherichia coli ATCC 25922 at 50 uM after 24 hrs by broth microdilution method; format: functional; conditions: ATCC 25922, 24 h, read-out: GI
Escherichia coli [4] = assay: Antibacterial activity against Escherichia coli ECM1194 lacking tolC gene by broth microdilution method; format: functional
Escherichia coli [5] = assay: Antibacterial activity against wild type Escherichia coli ECM1194 by broth microdilution method; format: functional

Chain of DNA gyrase subunit B (Staphylococcus aureus, UniProt P0A0K8) (P0A0K8 whole entry): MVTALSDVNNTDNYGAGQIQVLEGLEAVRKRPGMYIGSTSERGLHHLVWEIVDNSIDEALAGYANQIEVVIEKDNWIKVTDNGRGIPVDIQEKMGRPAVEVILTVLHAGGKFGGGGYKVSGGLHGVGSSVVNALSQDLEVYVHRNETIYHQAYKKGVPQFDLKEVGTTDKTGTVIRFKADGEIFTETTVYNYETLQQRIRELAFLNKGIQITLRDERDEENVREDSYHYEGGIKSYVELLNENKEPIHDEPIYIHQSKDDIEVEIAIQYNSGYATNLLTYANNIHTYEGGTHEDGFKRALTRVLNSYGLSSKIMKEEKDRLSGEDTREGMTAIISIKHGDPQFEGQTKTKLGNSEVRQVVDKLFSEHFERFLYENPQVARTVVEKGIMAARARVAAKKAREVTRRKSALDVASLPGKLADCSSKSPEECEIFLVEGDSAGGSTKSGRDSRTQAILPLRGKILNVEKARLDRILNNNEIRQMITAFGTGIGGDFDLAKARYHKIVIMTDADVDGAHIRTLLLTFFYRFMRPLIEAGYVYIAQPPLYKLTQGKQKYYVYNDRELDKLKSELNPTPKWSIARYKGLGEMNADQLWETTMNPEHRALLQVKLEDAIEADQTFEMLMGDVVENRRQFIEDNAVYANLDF

`CCOC(=O)C(=O)Nc1nc2ccc(NC(=O)c3cc(Br)c(Br)[nH]3)cc2s1` gave an IC50 (DNA gyrase subunit B [1]) greater than 100 µM and an IC50 (DNA gyrase subunit B [2]) of 0.081 µM.
In the case of `O=C(O)CCC(=O)Nc1ccc2nc(NC(=O)c3cc(Cl)c(Cl)[nH]3)sc2c1`, the IC50 (DNA gyrase subunit B [1]) is reported as 94 µM and the IC50 (DNA gyrase subunit B [2]) is reported as 0.43 µM.
`Nc1ccc2nc(NC(=O)c3cc(Br)c(Br)[nH]3)sc2c1` gave an IC50 (DNA gyrase subunit B [1]) greater than 100 µM and an IC50 (DNA gyrase subunit B [2]) of 2 µM.
`COC(=O)CCC(=O)Nc1nc2ccc(NC(=O)c3cc(Br)c(Br)[nH]3)cc2s1` gave an IC50 (DNA gyrase subunit B [1]) greater than 100 µM and an IC50 (DNA gyrase subunit B [2]) of 0.87 µM.
For `COC(=O)CCC(=O)Nc1ccc2nc(NC(=O)c3cc(Br)c(Br)[nH]3)sc2c1`, the IC50 (DNA gyrase subunit B [1]) was greater than 100 µM and the IC50 (DNA gyrase subunit B [2]) was 7 µM.
With `O=C(O)CCC(=O)Nc1nc2ccc(NC(=O)c3cc(Br)c(Br)[nH]3)cc2s1` the IC50 (DNA gyrase subunit B [1]) was greater than 100 µM and the IC50 (DNA gyrase subunit B [2]) was 0.057 µM.
With `O=C(O)CC(=O)Nc1ccc2nc(NC(=O)c3cc(Cl)c(Cl)[nH]3)sc2c1` the IC50 (DNA gyrase subunit B [1]) was 8.5 µM and the IC50 (DNA gyrase subunit B [2]) was 0.12 µM.
`O=C(O)CCC(=O)Nc1ccc2nc(NC(=O)c3cc(Br)c(Br)[nH]3)sc2c1` gave an IC50 (DNA gyrase subunit B [1]) greater than 100 µM and an IC50 (DNA gyrase subunit B [2]) of 0.033 µM.
`COC(=O)CC(=O)Nc1ccc2nc(NC(=O)c3cc(Cl)c(Cl)[nH]3)sc2c1` gave an IC50 (DNA gyrase subunit B [1]) greater than 100 µM and an IC50 (DNA gyrase subunit B [2]) of 0.22 µM.
With `COC(=O)CC(=O)Nc1ccc2nc(NC(=O)c3cc(Br)c(Br)[nH]3)sc2c1` the IC50 (DNA gyrase subunit B [1]) was greater than 100 µM and the IC50 (DNA gyrase subunit B [2]) was 2 µM.
In the case of `O=C(O)C(=O)Nc1ccc2nc(NC(=O)c3cc(Cl)c(Cl)[nH]3)sc2c1`, the IC50 (DNA gyrase subunit B [1]) is reported as 0.51 µM.
`CCOC(=O)C(=O)Nc1ccc2nc(NC(=O)c3cc(Cl)c(Cl)[nH]3)sc2c1` was tested, and the IC50 (DNA gyrase subunit B [1]) was greater than 100 µM and the IC50 (DNA gyrase subunit B [2]) was greater than 100 µM.
With `CCOC(=O)C(=O)Nc1nc2ccc(NC(=O)c3cc(Cl)c(Cl)[nH]3)cc2s1` the IC50 (DNA gyrase subunit B [1]) was greater than 100 µM, the inhibition of growth at 50 µM (Enterococcus faecalis) was 47% and the IC50 (DNA gyrase subunit B [2]) was 1.8 µM.
`COC(=O)CC(=O)Nc1nc2ccc(NC(=O)c3cc(Br)c(Br)[nH]3)cc2s1` was tested, and the IC50 (DNA gyrase subunit B [1]) was greater than 100 µM and the IC50 (DNA gyrase subunit B [2]) was 0.24 µM.
Work on `CCOC(=O)C(=O)Nc1ccc2nc(NC(=O)c3cc(Br)c(Br)[nH]3)sc2c1` yielded an IC50 (DNA gyrase subunit B [1]) greater than 100 µM and an IC50 (DNA gyrase subunit B [2]) of 29 µM.
For `COC(=O)CCC(=O)Nc1ccc2nc(NC(=O)c3cc(Cl)c(Cl)[nH]3)sc2c1`, the IC50 (DNA gyrase subunit B [1]) was greater than 100 µM and the IC50 (DNA gyrase subunit B [2]) was 35 µM.
`Nc1ccc2nc(NC(=O)c3cc(Cl)c(Cl)[nH]3)sc2c1` showed an IC50 (DNA gyrase subunit B [1]) greater than 100 µM and an IC50 (DNA gyrase subunit B [2]) greater than 100 µM.
`O=C(O)C(=O)Nc1nc2ccc(NC(=O)c3cc(Br)c(Br)[nH]3)cc2s1` showed an IC50 (DNA gyrase subunit B [1]) greater than 100 µM and an IC50 (DNA gyrase subunit B [2]) of 0.038 µM.
`O=C(O)CC(=O)Nc1ccc2nc(NC(=O)c3cc(Br)c(Br)[nH]3)sc2c1` was tested, and the inhibition of growth at 50 µM (Pseudomonas aeruginosa) was 11%, the inhibition of growth at 50 µM (Escherichia coli [3]) was 12% and the MIC (Escherichia coli [4]) was less than 16 mg/L. The IC50 (DNA gyrase subunit B [1]) was 5.6 µM, the MIC (Escherichia coli [5]) was greater than 256 mg/L and the inhibition of growth at 50 µM (Enterococcus faecalis) was 59%. It also gave an IC50 (DNA gyrase subunit B [2]) of 0.14 µM.
With `COC(=O)CC(=O)Nc1nc2ccc(NC(=O)c3cc(Cl)c(Cl)[nH]3)cc2s1` the IC50 (DNA gyrase subunit B [1]) was greater than 100 µM and the IC50 (DNA gyrase subunit B [2]) was 7.9 µM.
